Laboratory results published in the supplement of paper PMC13380429.

Key:
Caco-2 [1] = assay: relative viability EC50 (midpoint between 100% and the lowest measured viability); higher = less toxic; details: 72 h
HepG2 [2] = assay: as above; details: 72 h
U2OS [3] = assay: as above; details: 72 h
Vero E6 [4] = assay: as above; details: 72 h
Calu-3 [5] = assay: as above; details: 72 h
[6] = system: A549-ACE2 infected with SARS-CoV-2; assay: SARS-CoV-2 infection rate relative to DMSO; higher = more infection; details: 24 h
[7] = system: A549-ACE2 infected with SARS-CoV-2; assay: cell count relative to DMSO; higher = less toxic; details: 24 h
A549-ACE2 [8] = assay: drug-induced phospholipidosis relative to tamoxifen; higher = more phospholipidosis
A549-ACE2 [9] = assay: phospholipidosis EC50; higher = less potent phospholipidosis inducer
Caco-2 [10] = assay: drug sensitivity score (DSS) for viability; higher = more toxic; extreme values may be limits of the assay; details: 72 h
HepG2 [11] = assay: as above; details: 72 h
U2OS [12] = assay: as above; details: 72 h
Vero E6 [13] = assay: as above; details: 72 h
Calu-3 [14] = assay: as above; details: 72 h
[15] = system: A549-ACE2 infected with SARS-CoV-2; assay: morphology score (similarity to uninfected cells); higher = more like uninfected cells; details: 24 h
Caco-2 [16] = assay: cell viability relative to DMSO; higher = less toxic; details: 72 h
HepG2 [17] = assay: as above; details: 72 h
U2OS [18] = assay: as above; details: 72 h
Vero E6 [19] = assay: as above; details: 72 h
Calu-3 [20] = assay: as above; details: 72 h

OCCN1CCN(CC/C=C2/c3ccccc3Sc3ccc(C(F)(F)F)cc32)CC1 [flupentixol]
Details	drug sensitivity score	relative viability EC50 [µM]
Caco-2 [1]	–	> 10
Caco-2 [10]	0	–
Calu-3 [5]	–	> 10
Calu-3 [14]	0.6	–
HepG2 [2]	–	> 10
HepG2 [11]	0	–
U2OS [3]	–	> 10
U2OS [12]	0	–
Vero E6 [4]	–	> 10
Vero E6 [13]	0	–

Details	SARS-CoV-2 infection rate [%]	cell count [%]	cell viability [%]	morphology score	phospholipidosis EC50 [µM]
A549-ACE2 [9], 24 h	–	–	–	–	17
A549-ACE2 [9], 48 h	–	–	–	–	8.95
A549-ACE2 [9], 72 h	–	–	–	–	10.2
Caco-2 [16], 1 nM	–	–	90.3	–	–
Caco-2 [16], 10 nM	–	–	93.7	–	–
Caco-2 [16], 100 nM	–	–	95.2	–	–
Caco-2 [16], 1000 nM	–	–	87.6	–	–
Caco-2 [16], 10000 nM	–	–	92.4	–	–
Calu-3 [20], 1 nM	–	–	85.3	–	–
Calu-3 [20], 10 nM	–	–	87.7	–	–
Calu-3 [20], 100 nM	–	–	106	–	–
Calu-3 [20], 1000 nM	–	–	94.7	–	–
Calu-3 [20], 10000 nM	–	–	87	–	–
HepG2 [17], 1 nM	–	–	97.2	–	–
HepG2 [17], 10 nM	–	–	93.8	–	–
HepG2 [17], 100 nM	–	–	90	–	–
HepG2 [17], 1000 nM	–	–	96.9	–	–
HepG2 [17], 10000 nM	–	–	89.9	–	–
U2OS [18], 1 nM	–	–	99.2	–	–
U2OS [18], 10 nM	–	–	89.9	–	–
U2OS [18], 100 nM	–	–	105	–	–
U2OS [18], 1000 nM	–	–	94.6	–	–
U2OS [18], 10000 nM	–	–	92.1	–	–
Vero E6 [19], 1 nM	–	–	98.1	–	–
Vero E6 [19], 10 nM	–	–	96.9	–	–
Vero E6 [19], 100 nM	–	–	98.1	–	–
Vero E6 [19], 1000 nM	–	–	91.8	–	–
Vero E6 [19], 10000 nM	–	–	93.1	–	–
[6], 0.3 µM	97	–	–	–	–
[6], 3 µM	66	–	–	–	–
[6], 10 µM	17	–	–	–	–
[6], 30 µM	46	–	–	–	–
[7], 0.3 µM	–	107	–	–	–
[7], 3 µM	–	113	–	–	–
[7], 10 µM	–	124	–	–	–
[7], 30 µM	–	96	–	–	–
[15], 0.3 µM	–	–	–	0.2	–
[15], 3 µM	–	–	–	0.62	–
[15], 10 µM	–	–	–	0.88	–
[15], 30 µM	–	–	–	0.36	–

drug-induced phospholipidosis [%], A549-ACE2 [8]
Details	0.3 µM	0.833333 µM	3.33333 µM	6.66667 µM	10 µM	30 µM
24 h	4.08	5.01	30.1	43.1	72.8	122
48 h	5.09	0.98	25.8	36.9	80	116
72 h	7.2	2.4	18.4	31.8	74.8	138
